{"source": "ChEMBL document CHEMBL1134185", "about": "“Synthesis and anticonvulsant activity of novel and potent 1-aryl-7,8-methylenedioxy-1,2,3,5-tetrahydro-4H-2,3-benzodiazepin-4-ones” (2001)", "key": {"Mus musculus [1]": {"test_system": "Mus musculus", "assay": "Effective dose required for anticonvulsant activity against AMPA-induced clonic seizure in Swiss mice 45 minutes after ip administration of the compound", "assay_type": "functional", "conditions": "0.75 h"}, "Mus musculus [2]": {"test_system": "Mus musculus", "assay": "Effective dose required for anticonvulsant activity by ip administration against tonic phase of audiogenic seizures in DBA/2 mice after pretreatment with aniracetam+ 2,3-benzodiazepine (p<0.01)", "assay_type": "functional"}, "[3]": {"assay": "Anticonvulsant activity against audiogenic tonic seizures in DBA/2 mice, administered ip 30 minutes before auditory stimulation", "assay_type": "functional", "conditions": "Mus musculus"}, "Mus musculus [4]": {"species_on_record": "Mus musculus", "assay": "Ratio of TD50 to ED50, expressed as protective index", "assay_type": "functional"}, "Mus musculus [5]": {"test_system": "Mus musculus", "assay": "Effective dose required for anticonvulsant activity by ip administration against clonic phase of audiogenic seizures in DBA/2 mice after pretreatment with aniracetam+ 2,3-benzodiazepine (p<0.01)", "assay_type": "functional"}, "Mus musculus [6]": {"test_system": "Mus musculus", "assay": "Effective dose required for anticonvulsant activity against Clonic phase of seizure in DBA/2 mice 30 minutes after ip administration of the compound", "assay_type": "functional", "conditions": "0.5 h"}, "Mus musculus [7]": {"test_system": "Mus musculus", "assay": "Effective dose required for anticonvulsant activity against MES-induced Tonic seizure in Swiss mice 45 minutes after ip administration of the compound", "assay_type": "functional", "conditions": "0.75 h"}, "Mus musculus [8]": {"test_system": "Mus musculus", "assay": "Effective dose required for anticonvulsant activity against PTZ-induced Clonic seizure in Swiss mice 45 minutes after ip administration of the compound", "conditions": "0.75 h"}, "Mus musculus [9]": {"test_system": "Mus musculus", "assay": "Effective dose required for anticonvulsant activity against Clonic phase of seizure in DBA/2 mice 15 minutes after ip administration of the compound", "assay_type": "functional", "conditions": "0.25 h"}, "Mus musculus [10]": {"test_system": "Mus musculus", "assay": "Effective dose required for anticonvulsant activity against KA-induced seizure was evaluated in Swiss mice on sc administration at CD97 (32 mg/kg) 15 minutes after ip injection of compound.", "assay_type": "functional", "conditions": "0.25 h"}, "Mus musculus [11]": {"test_system": "Mus musculus", "assay": "Effective dose required for anticonvulsant activity against Clonic phase of seizure in DBA/2 mice 45 minutes after ip administration of the compound", "assay_type": "functional", "conditions": "0.75 h"}, "Mus musculus [12]": {"test_system": "Mus musculus", "assay": "Effective dose required for anticonvulsant activity against Clonic phase of seizure in DBA/2 mice 90 minutes after ip administration of the compound", "assay_type": "functional", "conditions": "1.5 h"}, "Mus musculus [13]": {"test_system": "Mus musculus", "assay": "Effective dose required for anticonvulsant activity against Clonic phase of seizure in DBA/2 mice 120 minutes after ip administration of the compound", "assay_type": "functional", "conditions": "2 h"}, "Mus musculus [14]": {"species_on_record": "Mus musculus", "assay": "Percent reduction of KA-evoked current with the patch clamp technique in cerebellar granule neurons grown in primary culture at a dose level of 100 uM was evaluated", "assay_type": "functional"}, "Mus musculus [15]": {"test_system": "Mus musculus", "assay": "Effective dose required for anticonvulsant activity against Clonic phase of seizure in DBA/2 mice 60 minutes after ip administration of the compound", "assay_type": "functional", "conditions": "1 h"}, "[16]": {"assay": "Anticonvulsant activity against audiogenic Clonic seizures in DBA/2 mice, administered ip 30 minutes before auditory stimulation.", "assay_type": "functional", "conditions": "Mus musculus"}, "Mus musculus [17]": {"test_system": "Mus musculus", "assay": "Effective dose required for anticonvulsant activity against AMPA-induced Tonic seizure in DBA/2 mice 45 minutes after ip administration of the compound", "conditions": "0.75 h"}, "Mus musculus [18]": {"species_on_record": "Mus musculus", "assay": "Dose required to produce locomotor deficit assessed by rotarod test in DBA/2 mice.", "assay_type": "functional"}, "Mus musculus [19]": {"test_system": "Mus musculus", "assay": "Effective dose required for anticonvulsant activity against AMPA-induced tonic seizure in Swiss mice 45 minutes after ip administration of the compound", "assay_type": "functional", "conditions": "0.75 h"}}, "data": [{"compound": "Nc1ccc(C2NNC(=O)Cc3cc4c(cc32)OCO4)cc1", "note": "(centres undefined)", "values": [{"measurement": "ED50", "setting": "Mus musculus [1]", "value": 24.6, "unit": "µmol/kg"}, {"measurement": "ED50", "setting": "Mus musculus [2]", "value": 33.1, "unit": "µmol/kg"}, {"measurement": "ED50", "setting": "[3]", "value": 6.47, "unit": "µmol/kg"}, {"measurement": "Ratio", "setting": "Mus musculus [4]", "value": 3.6}, {"measurement": "ED50", "setting": "Mus musculus [5]", "value": 52.3, "unit": "µmol/kg"}, {"measurement": "ED50", "setting": "Mus musculus [6]", "value": 11.4, "unit": "µmol/kg"}, {"measurement": "ED50", "setting": "Mus musculus [7]", "value": 35.7, "unit": "µmol/kg"}, {"measurement": "ED50", "setting": "Mus musculus [8]", "value": 59.7, "unit": "µmol/kg"}, {"measurement": "ED50", "setting": "Mus musculus [9]", "value": "> 50", "unit": "µmol/kg"}, {"measurement": "ED50", "setting": "Mus musculus [10]", "value": 15.9, "unit": "µmol/kg"}, {"measurement": "ED50", "setting": "Mus musculus [11]", "value": 18.7, "unit": "µmol/kg"}, {"measurement": "ED50", "setting": "Mus musculus [12]", "value": 37.1, "unit": "µmol/kg"}, {"measurement": "ED50", "setting": "Mus musculus [13]", "value": 39.5, "unit": "µmol/kg"}, {"measurement": "Reduction", "setting": "Mus musculus [14]", "value": 38, "unit": "%"}, {"measurement": "ED50", "setting": "Mus musculus [15]", "value": 23.4, "unit": "µmol/kg"}, {"measurement": "ED50", "setting": "[16]", "value": 11.4, "unit": "µmol/kg"}, {"measurement": "ED50", "setting": "Mus musculus [17]", "value": 17.5, "unit": "µmol/kg"}]}, {"compound": "CCC(=O)NN1N=C(c2ccc(N)cc2)c2cc3c(cc2CC1=O)OCO3", "values": [{"measurement": "ED50", "setting": "[3]", "value": 6.47, "unit": "µmol/kg"}, {"measurement": "Ratio", "setting": "Mus musculus [4]", "value": 3.6}, {"measurement": "TD50", "setting": "Mus musculus [18]", "value": 41.2, "unit": "µM/kg"}, {"measurement": "ED50", "setting": "[16]", "value": 11.4, "unit": "µmol/kg"}]}, {"compound": "CCC(=O)NN1NC(c2ccc(N)cc2)c2cc3c(cc2CC1=O)OCO3", "note": "(centres undefined)", "values": [{"measurement": "ED50", "setting": "[3]", "value": 18.1, "unit": "µmol/kg"}, {"measurement": "Ratio", "setting": "Mus musculus [4]", "value": 3.5}, {"measurement": "TD50", "setting": "Mus musculus [18]", "value": 86.1, "unit": "µM/kg"}, {"measurement": "ED50", "setting": "[16]", "value": 24.6, "unit": "µmol/kg"}]}, {"compound": "CCCC(=O)NN1N=C(c2ccc(N)cc2)c2cc3c(cc2CC1=O)OCO3", "values": [{"measurement": "ED50", "setting": "[3]", "value": 5.09, "unit": "µmol/kg"}, {"measurement": "Ratio", "setting": "Mus musculus [4]", "value": 3.4}, {"measurement": "TD50", "setting": "Mus musculus [18]", "value": 398, "unit": "µM/kg"}, {"measurement": "ED50", "setting": "[16]", "value": 69.4, "unit": "µmol/kg"}]}, {"compound": "CCCCC(=O)NN1N=C(c2ccc(N)cc2)c2cc3c(cc2CC1=O)OCO3", "values": [{"measurement": "ED50", "setting": "[3]", "value": 14.2, "unit": "µmol/kg"}, {"measurement": "Ratio", "setting": "Mus musculus [4]", "value": 4.7}, {"measurement": "TD50", "setting": "Mus musculus [18]", "value": 673, "unit": "µM/kg"}, {"measurement": "ED50", "setting": "[16]", "value": 22.4, "unit": "µmol/kg"}]}, {"compound": "Nc1ccc(C2=NNC(=O)Cc3cc4c(cc32)OCO4)cc1", "values": [{"measurement": "ED50", "setting": "Mus musculus [1]", "value": 37.6, "unit": "µmol/kg"}, {"measurement": "ED50", "setting": "Mus musculus [19]", "value": 27, "unit": "µmol/kg"}]}, {"compound": "CC(=O)NN1N=C(c2ccc(N)cc2)c2cc3c(cc2CC1=O)OCO3", "values": [{"measurement": "ED50", "setting": "[3]", "value": 10.9, "unit": "µmol/kg"}, {"measurement": "Ratio", "setting": "Mus musculus [4]", "value": 4.5}, {"measurement": "ED50", "setting": "Mus musculus [18]", "value": 99.1, "unit": "µmol/kg"}, {"measurement": "ED50", "setting": "[16]", "value": 15.4, "unit": "µmol/kg"}]}, {"compound": "CCCC(=O)NN1NC(c2ccc(N)cc2)c2cc3c(cc2CC1=O)OCO3", "note": "(centres undefined)", "values": [{"measurement": "ED50", "setting": "[3]", "value": 32.6, "unit": "µmol/kg"}, {"measurement": "Ratio", "setting": "Mus musculus [4]", "value": 2.8}, {"measurement": "TD50", "setting": "Mus musculus [18]", "value": 108, "unit": "µM/kg"}, {"measurement": "ED50", "setting": "[16]", "value": 38.7, "unit": "µmol/kg"}]}, {"compound": "CC(=O)NN1NC(c2ccc(N)cc2)c2cc3c(cc2CC1=O)OCO3", "note": "(centres undefined)", "values": [{"measurement": "ED50", "setting": "[3]", "value": 49.2, "unit": "µmol/kg"}, {"measurement": "Ratio", "setting": "Mus musculus [4]", "value": 2.6}, {"measurement": "TD50", "setting": "Mus musculus [18]", "value": 182, "unit": "µM/kg"}, {"measurement": "ED50", "setting": "[16]", "value": 69.4, "unit": "µmol/kg"}]}, {"compound": "O=C1Cc2cc3c(cc2C(c2ccccc2)=NN1)OCO3", "values": [{"measurement": "Ratio", "setting": "Mus musculus [4]", "value": 3.7}]}, {"compound": "CC1=NN=C(c2ccc(N)cc2)c2cc3c(cc2C1)OCO3", "note": "[GYKI-52466]", "values": [{"measurement": "Ratio", "setting": "Mus musculus [4]", "value": 2.1}]}]}
